The record followed here is ChEMBL document CHEMBL1125944, “Imidazo[1,2-a]piperazines as mechanistic inhibitors of serine proteinases” (Bioorg Med Chem Lett, 1991).

The target of this test is T1, Neutrophil elastase (Homo sapiens, UniProt P08246).
T1 sequence (P08246 whole entry): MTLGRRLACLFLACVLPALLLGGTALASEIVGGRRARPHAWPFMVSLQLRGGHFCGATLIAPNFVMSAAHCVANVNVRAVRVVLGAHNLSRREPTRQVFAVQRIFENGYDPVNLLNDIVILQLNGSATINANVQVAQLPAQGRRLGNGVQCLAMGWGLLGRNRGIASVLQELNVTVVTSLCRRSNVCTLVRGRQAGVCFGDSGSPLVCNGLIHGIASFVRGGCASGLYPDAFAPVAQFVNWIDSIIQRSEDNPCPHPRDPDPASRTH
The test can be described thus: Compound was tested for its inhibitory activity against human leukocyte Elastase (HLE).

As to `CC(C)C1N=C2CN(C3Cc4ccccc4C3)C(=O)[C@H](C(C)C)N2C1(O)C(F)(F)F` (stereo partly specified), the IC50 (in general, the concentration that gives 50% inhibition) is 8.74 µM.
